{
  "source": "patent US20220347118A1",
  "about": "“STABLE MEDICINAL CANNABIDIOL COMPOSITIONS” (CARDIOL THERAPEUTICS INC., priority 2019, published 2022)",
  "key": {"Solubility of CBD in BCP": {"assay": "Solubility of CBD in BCP", "assay_type": "physicochemical", "conditions": "in 1 mL of BCP and its derivatives", "experimental": "For example, at least 300 mg of CBD can be dissolved in 1 mL of BCP and its derivatives. The enhanced stability of the CBD provides a composition with an acceptable shelf life and which can provide consistency in dosing and enhanced safety."}, "CB2 receptor": {"biological_target": "CB2 receptor (Homo sapiens, UniProt P34972)", "sequence (P34972 whole entry)": "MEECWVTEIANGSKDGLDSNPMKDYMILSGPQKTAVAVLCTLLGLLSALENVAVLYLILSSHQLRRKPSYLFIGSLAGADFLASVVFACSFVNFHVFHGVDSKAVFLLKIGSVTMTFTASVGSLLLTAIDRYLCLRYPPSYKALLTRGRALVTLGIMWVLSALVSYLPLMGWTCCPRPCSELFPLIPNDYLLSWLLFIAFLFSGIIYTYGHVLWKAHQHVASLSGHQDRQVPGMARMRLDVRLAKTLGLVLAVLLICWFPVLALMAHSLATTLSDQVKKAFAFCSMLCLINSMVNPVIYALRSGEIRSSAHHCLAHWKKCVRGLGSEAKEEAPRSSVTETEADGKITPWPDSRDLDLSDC", "conditions": "Proc Natl Acad Sci USA. 2008; 105(26):9099-104; cited from earlier work"}},
  "data": [
    {"smiles": "C=C(C)[C@@H]1CCC(C)=C[C@H]1c1c(O)cc(CCCCC)cc1O", "note": "[CBD, cannabidiol]", "values": [
      {"measurement": "amount of CBD that can be dissolved in BCP", "setting": "Solubility of CBD in BCP", "value": "at least 300 mg"}
    ]},
    {"smiles": "C=C1CC/C=C(\\C)CC[C@@H]2[C@@H]1CC2(C)C", "note": "[β-caryophyllene, trans-(1R,9S)-8-Methylene-4,11,11-trimethylbicyclo[7.2.0]undec-4-ene]", "values": [
      {"measurement": "CB2 receptor binding / functional activity", "setting": "CB2 receptor", "value": "selectively binds to the CB2 receptor and is a functional CB2 agonist"}
    ]}
  ]
}
